Patent publication US10350271B2, “Lipidated peptides for lowering blood glucose” (USTAV ORGANICKE CHEMIE A BIOCHEMIE AKADEMIE VED CR, V.V.I., priority 2014, dated 2019)
Square brackets hold non-standard residues; d marks the D form. Peptide text beside a SMILES is read from it. * marks the point of attachment. Phe(F5) = N[C@@H](Cc1c(F)c(F)c(F)c(F)c1F)C(=O)O; Palmitoyl = CCCCCCCCCCCCCCCC(=O)*; Lauroyl = CCCCCCCCCCCC(=O)*; Decanoyl = CCCCCCCCCC(=O)*; Nle = CCCC[C@H](N)C(=O)O; Octanoyl = CCCCCCCC(=O)*

Assays:
[1] = molecular target: T1, human PrRP receptor GPR10 (Homo sapiens, UniProt P49683); assay: Competitive binding in CHO cells transfected with human GPR10 (human 125I-PrRP31); settings: for % of PrRP31, GPR10 human receptor transfected in CHO cells: affinity relative to PrRP31; for Ki: CHO cells, human 125I-PrRP31, read-out: Ki, GPR10 human receptor transfected in CHO cells; for Displacement of human 125I-PrRP binding: human GPR10 receptor
T1 construct: host or cells: CHO cells
T1 sequence (P49683 1-370): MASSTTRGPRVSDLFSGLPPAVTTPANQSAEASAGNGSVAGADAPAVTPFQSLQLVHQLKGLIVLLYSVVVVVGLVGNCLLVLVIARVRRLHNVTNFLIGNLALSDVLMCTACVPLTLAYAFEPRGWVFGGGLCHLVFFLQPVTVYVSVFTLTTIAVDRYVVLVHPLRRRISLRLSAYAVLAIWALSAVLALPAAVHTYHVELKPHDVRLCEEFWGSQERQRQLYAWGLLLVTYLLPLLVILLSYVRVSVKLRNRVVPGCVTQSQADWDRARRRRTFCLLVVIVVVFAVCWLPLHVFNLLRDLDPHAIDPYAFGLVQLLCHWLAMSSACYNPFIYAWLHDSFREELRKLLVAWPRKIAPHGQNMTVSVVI
Outline: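 GPR10-transfected CHO cells (40-80 thousand/well) incubated 60 min at room temperature with 5×10^-11 mol·l^-1 human 125I-PrRP31 and unlabeled analog at 10^-11 to 10^-4 mol·l^-1 in Tris binding buffer pH 7.4. Cells solubilized in 0.1 mol/l NaOH, γ-counted; one-site nonlinear regression fit.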

rat PrRP receptor = molecular target: T2, rat PrRP receptor (Rattus norvegicus, UniProt Q64121); assay: Competitive binding in RC-4B/C rat pituitary cells (125I-rat PrRP31); settings: for % of PrRP31, RC-4B/C rat pituitary cells: affinity relative to PrRP31; for Ki: displacement of 125I-rat PrRP31, read-out: Ki, RC-4B/C rat pituitary cells ^25I-rat PrRP31; for Displacement of rat 125I-PrRP binding: rat PrRP receptor
T2 construct: host or cells: RC-4B/C rat pituitary cell line
T2 sequence (Q64121 1-370): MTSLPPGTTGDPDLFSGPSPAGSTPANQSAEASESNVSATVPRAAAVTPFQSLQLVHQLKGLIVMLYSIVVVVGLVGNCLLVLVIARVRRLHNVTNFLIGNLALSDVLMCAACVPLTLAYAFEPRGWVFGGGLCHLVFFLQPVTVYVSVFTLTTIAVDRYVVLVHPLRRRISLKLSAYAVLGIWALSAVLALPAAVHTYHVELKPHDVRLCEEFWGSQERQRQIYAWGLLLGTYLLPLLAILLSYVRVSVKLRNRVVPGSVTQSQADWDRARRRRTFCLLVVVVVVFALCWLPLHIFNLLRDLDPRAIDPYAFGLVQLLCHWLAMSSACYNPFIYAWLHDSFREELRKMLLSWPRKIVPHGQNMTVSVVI
Outline: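 Intact rat pituitary RC-4B/C cells incubated 60 min at room temperature with […] rat 125I-PrRP31 and unlabeled analog (10^−11 to 10^−4 mol·l^−1) in HEPES pH 7.4 buffer. Cell-bound radioactivity γ-counted after NaOH lysis; one-site competition fit.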

C57BL/6 mice = assay: Food intake in fasted mice after SC injection; assay type: in vivo; settings: for Food intake in mice % of saline-treated group: 5 mg/kg SC, 45 min after injection
Outline: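 Overnight-fasted animals (food removed 17 h before dosing, water available) in individual cages got saline, PrRP or lipidated PrRP analogs SC at 1-10 mg/kg.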

SMILES	% of PrRP31, GPR10 human receptor transfected in CHO cells [1]	% of PrRP31, RC-4B/C rat pituitary cells (rat PrRP receptor)	Food intake in mice % of saline-treated group (C57BL/6 mice)	Binding affinity (rat PrRP receptor; RC-4B/C cells, statements referring to Table 2)	Effect on food intake in mice (C57BL/6 mice; SC)	Ki [1]	Displacement of human 125I-PrRP binding [1]	Ki (rat PrRP receptor; RC-4B/C cells)	Displacement of rat 125I-PrRP binding (rat PrRP receptor; RC-4B/C cells)
CCCCCCCCCCCCCCCC(=O)N[C@@H](CO)C(=O)N[C@@H](CCCNC(=N)N)C(=O)N[C@@H](C)C(=O)N[C@@H](Cc1c[nH]cn1)C(=O)N[C@@H](CCC(N)=O)C(=O)N[C@@H](Cc1c[nH]cn1)C(=O)N[C@@H](CO)C(=O)N[C@@H](CCCC)C(=O)N[C@@H](CCC(=O)O)C(=O)N[C@H](C(=O)N[C@@H](CCCNC(=N)N)C(=O)N[C@H](C(=O)N1CCC[C@H]1C(=O)N[C@@H](CC(=O)O)C(=O)N[C@H](C(=O)N[C@@H](CC(N)=O)C(=O)N1CCC[C@H]1C(=O)N[C@@H](C)C(=O)N[C@@H](Cc1c[nH]c2ccccc12)C(=O)N[C@@H](Cc1ccc(O)cc1)C(=O)N[C@H](C(=O)NCC(=O)N[C@@H](CCCNC(=N)N)C(=O)NCC(=O)N[C@H](C(=O)N[C@@H](CCCNC(=N)N)C(=O)N1CCC[C@H]1C(=O)N[C@H](C(=O)NCC(=O)N[C@@H](CCCNC(=N)N)C(=O)N[C@@H](Cc1c(F)c(F)c(F)c(F)c1F)C(N)=O)C(C)C)[C@@H](C)CC)[C@@H](C)O)[C@@H](C)CC)[C@@H](C)O)[C@@H](C)O [Analog 22] (Palmitoyl-SRAHQHS[Nle]ETRTPDINPAWYTGRGIRPVGR[Phe(F5)]-NH2)	203%	966%	41%						
CCCCCCCCCCCCCCCC(=O)N[C@@H](CO)C(=O)N[C@@H](CCCNC(=N)N)C(=O)N[C@@H](C)C(=O)N[C@@H](Cc1c[nH]cn1)C(=O)N[C@@H](CCC(N)=O)C(=O)N[C@@H](Cc1c[nH]cn1)C(=O)N[C@@H](CO)C(=O)N[C@@H](CCCC)C(=O)N[C@@H](CCC(=O)O)C(=O)N[C@H](C(=O)N[C@@H](CCCNC(=N)N)C(=O)N[C@H](C(=O)N1CCC[C@H]1C(=O)N[C@@H](CC(=O)O)C(=O)N[C@H](C(=O)N[C@@H](CC(N)=O)C(=O)N1CCC[C@H]1C(=O)N[C@@H](C)C(=O)N[C@@H](Cc1c[nH]c2ccccc12)C(=O)N[C@@H](Cc1ccc(O)cc1)C(=O)N[C@H](C(=O)NCC(=O)N[C@@H](CCCNC(=N)N)C(=O)NCC(=O)N[C@H](C(=O)N[C@@H](CCCNC(=N)N)C(=O)N1CCC[C@H]1C(=O)N[C@H](C(=O)NCC(=O)N[C@@H](CCCNC(=N)N)C(=O)N[C@@H](Cc1ccc(O)cc1)C(N)=O)C(C)C)[C@@H](C)CC)[C@@H](C)O)[C@@H](C)CC)[C@@H](C)O)[C@@H](C)O [Analog 24] (Palmitoyl-SRAHQHS[Nle]ETRTPDINPAWYTGRGIRPVGRY-NH2)	248%	1120%	22%						
CC[C@H](C)[C@H](NC(=O)[C@H](CCCNC(=N)N)NC(=O)[C@@H]1CCCN1C(=O)[C@@H](NC(=O)CNC(=O)[C@@H](CCCNC(=N)N)NC(=O)[C@H](N)Cc1ccccc1)C(C)C)C(=O)NCC(=O)N[C@@H](CCCNC(=N)N)C(=O)NCC(=O)N[C@H](C(=O)N[C@@H](Cc1ccc(O)cc1)C(=O)N[C@@H](Cc1c[nH]c2ccccc12)C(=O)N[C@@H](C)C(=O)N1CCC[C@H]1C(=O)N[C@@H](CC(N)=O)C(=O)N[C@H](C(=O)N[C@@H](CC(=O)O)C(=O)N1CCC[C@H]1C(=O)N[C@H](C(N)=O)[C@@H](C)O)[C@@H](C)CC)[C@@H](C)O [Analog 25] (H-[dF][dR]GVPRIGRGTYWAPNIDPT-NH2)	0.06%	0.09%		very low binding affinity	no effect				
CCCCCCCC(=O)N[C@H](C(=O)N1CCC[C@H]1C(=O)N[C@@H](CC(=O)O)C(=O)N[C@H](C(=O)N[C@@H](CC(N)=O)C(=O)N1CCC[C@H]1C(=O)N[C@@H](C)C(=O)N[C@@H](Cc1c[nH]c2ccccc12)C(=O)N[C@@H](Cc1ccc(O)cc1)C(=O)N[C@@H](C)C(=O)N[C@@H](CO)C(=O)N[C@@H](CCCNC(=N)N)C(=O)NCC(=O)N[C@H](C(=O)N[C@@H](CCCNC(=N)N)C(=O)N1CCC[C@H]1C(=O)N[C@H](C(=O)NCC(=O)N[C@@H](CCCNC(=N)N)C(=O)N[C@@H](Cc1ccccc1)C(N)=O)C(C)C)[C@@H](C)CC)[C@@H](C)CC)[C@@H](C)O [Analog 39] (Octanoyl-TPDINPAWYASRGIRPVGRF-NH2)	201%	530%	100%			1.94 ± 0.32 nM	nmol·l^−1 range	0.93 ± 0.23 nM	nmol·l^−1 range
CCCCCCCCCC(=O)N[C@H](C(=O)N1CCC[C@H]1C(=O)N[C@@H](CC(=O)O)C(=O)N[C@H](C(=O)N[C@@H](CC(N)=O)C(=O)N1CCC[C@H]1C(=O)N[C@@H](C)C(=O)N[C@@H](Cc1c[nH]c2ccccc12)C(=O)N[C@@H](Cc1ccc(O)cc1)C(=O)N[C@@H](C)C(=O)N[C@@H](CO)C(=O)N[C@@H](CCCNC(=N)N)C(=O)NCC(=O)N[C@H](C(=O)N[C@@H](CCCNC(=N)N)C(=O)N1CCC[C@H]1C(=O)N[C@H](C(=O)NCC(=O)N[C@@H](CCCNC(=N)N)C(=O)N[C@@H](Cc1ccccc1)C(N)=O)C(C)C)[C@@H](C)CC)[C@@H](C)CC)[C@@H](C)O [Analog 40] (Decanoyl-TPDINPAWYASRGIRPVGRF-NH2)	129%	1202%	100%			3.02 ± 0.49 nM	nmol·l^−1 range	0.41 ± 0.01 nM	nmol·l^−1 range
CCCCCCCCCCCC(=O)N[C@H](C(=O)N1CCC[C@H]1C(=O)N[C@@H](CC(=O)O)C(=O)N[C@H](C(=O)N[C@@H](CC(N)=O)C(=O)N1CCC[C@H]1C(=O)N[C@@H](C)C(=O)N[C@@H](Cc1c[nH]c2ccccc12)C(=O)N[C@@H](Cc1ccc(O)cc1)C(=O)N[C@@H](C)C(=O)N[C@@H](CO)C(=O)N[C@@H](CCCNC(=N)N)C(=O)NCC(=O)N[C@H](C(=O)N[C@@H](CCCNC(=N)N)C(=O)N1CCC[C@H]1C(=O)N[C@H](C(=O)NCC(=O)N[C@@H](CCCNC(=N)N)C(=O)N[C@@H](Cc1ccccc1)C(N)=O)C(C)C)[C@@H](C)CC)[C@@H](C)CC)[C@@H](C)O [Analog 41] (Lauroyl-TPDINPAWYASRGIRPVGRF-NH2)	161%	822%	85%				nmol·l^−1 range	0.6 ± 0.22 nM	nmol·l^−1 range
CCCCCCCCCCCCCC(=O)N[C@@H](CO)C(=O)N[C@@H](CCCNC(=N)N)C(=O)N[C@H](C(=O)N[C@@H](Cc1c[nH]cn1)C(=O)N[C@@H](CCCNC(=N)N)C(=O)N[C@@H](Cc1c[nH]cn1)C(=O)N[C@@H](CO)C(=O)N[C@@H](CCSC)C(=O)N[C@@H](CCC(=O)O)C(=O)N[C@H](C(=O)N[C@@H](CCCNC(=N)N)C(=O)N[C@H](C(=O)N1CCC[C@H]1C(=O)N[C@@H](CC(=O)O)C(=O)N[C@H](C(=O)N[C@@H](CC(N)=O)C(=O)N1CCC[C@H]1C(=O)N[C@@H](C)C(=O)N[C@@H](Cc1c[nH]c2ccccc12)C(=O)N[C@@H](Cc1ccc(O)cc1)C(=O)N[C@@H](C)C(=O)N[C@@H](CO)C(=O)N[C@@H](CCCNC(=N)N)C(=O)NCC(=O)N[C@H](C(=O)N[C@@H](CCCNC(=N)N)C(=O)N1CCC[C@H]1C(=O)N[C@H](C(=O)NCC(=O)N[C@@H](CCCNC(=N)N)C(=O)N[C@@H](Cc1ccccc1)C(N)=O)C(C)C)[C@@H](C)CC)[C@@H](C)CC)[C@@H](C)O)[C@@H](C)CC)[C@@H](C)O [Analog 42]	83%	1027%	10%					0.48 ± 0.18 nM	
